In ChEMBL document CHEMBL1909046, “DrugMatrix in vitro pharmacology data”:

How the values were obtained:
[1] = molecular target: Sodium-dependent noradrenaline transporter (Homo sapiens, UniProt P23975); assay: DRUGMATRIX: Norepinephrine Transporter radioligand binding (ligand: [125I] RTI-55); format: cell membranes, MDCK, Membrane; conditions: Not Active = under 50% inhibition at 10 µM
[2] = molecular target: T1, Type-2 angiotensin II receptor (Homo sapiens, UniProt P50052); format: cell-based; conditions: cho-k1; also: in other assays of this panel Not Active means under 50% inhibition at 10 µM
T1 sequence (P50052 whole entry): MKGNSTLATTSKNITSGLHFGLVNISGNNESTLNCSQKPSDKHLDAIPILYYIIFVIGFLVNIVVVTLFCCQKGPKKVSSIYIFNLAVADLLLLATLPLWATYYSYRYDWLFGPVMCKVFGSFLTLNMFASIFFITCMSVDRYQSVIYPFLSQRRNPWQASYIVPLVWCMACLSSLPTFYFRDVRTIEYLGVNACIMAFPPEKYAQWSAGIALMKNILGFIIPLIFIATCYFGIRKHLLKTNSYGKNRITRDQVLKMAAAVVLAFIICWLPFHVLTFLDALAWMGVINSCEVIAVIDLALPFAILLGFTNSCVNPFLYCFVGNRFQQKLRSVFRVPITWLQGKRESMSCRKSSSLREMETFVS

[3] = DRUGMATRIX: ATPase, Na+/K+ enzyme inhibition (substrate: ATP); format: tissue-based, Sus scrofa, Heart; conditions: Not Active = under 50% inhibition at 10 µM
[4] = DRUGMATRIX: Calcium Channel Type L, Benzothiazepine radioligand binding (ligand: [3H] Diltiazem); format: cell membranes, Rattus norvegicus, Wistar, Brain, Membrane; conditions: Not Active = under 50% inhibition at 10 µM
[5] = molecular target: Substance-P receptor (Homo sapiens, UniProt P25103); format: cell membranes, CHO, Membrane; conditions: cho; also: in other assays of this panel Not Active means under 50% inhibition at 10 µM
Sequence of Substance-P receptor (P25103 whole entry): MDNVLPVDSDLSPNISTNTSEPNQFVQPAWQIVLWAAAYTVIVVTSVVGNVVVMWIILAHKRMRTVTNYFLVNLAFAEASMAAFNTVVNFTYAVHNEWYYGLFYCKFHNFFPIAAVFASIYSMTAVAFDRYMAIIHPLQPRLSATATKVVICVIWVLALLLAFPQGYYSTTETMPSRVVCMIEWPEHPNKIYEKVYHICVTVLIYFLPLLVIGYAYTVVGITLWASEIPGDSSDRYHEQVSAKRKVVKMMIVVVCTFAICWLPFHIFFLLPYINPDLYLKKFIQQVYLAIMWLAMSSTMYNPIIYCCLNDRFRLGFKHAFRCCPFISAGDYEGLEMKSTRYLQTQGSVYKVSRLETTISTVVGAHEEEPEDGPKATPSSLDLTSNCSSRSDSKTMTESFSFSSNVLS

[6] = DRUGMATRIX: Tumor Necrosis Factor (TNF), Non-Selective radioligand binding (ligand: [125I] TNF-alpha); format: cell membranes, Membrane; conditions: u-937; Not Active = under 50% inhibition at 10 µM
[7] = molecular target: Cannabinoid receptor 1 (Homo sapiens, UniProt P21554); format: cell membranes, Membrane; conditions: chem-1; also: in other assays of this panel Not Active means under 50% inhibition at 10 µM
Sequence of Cannabinoid receptor 1 (P21554 whole entry): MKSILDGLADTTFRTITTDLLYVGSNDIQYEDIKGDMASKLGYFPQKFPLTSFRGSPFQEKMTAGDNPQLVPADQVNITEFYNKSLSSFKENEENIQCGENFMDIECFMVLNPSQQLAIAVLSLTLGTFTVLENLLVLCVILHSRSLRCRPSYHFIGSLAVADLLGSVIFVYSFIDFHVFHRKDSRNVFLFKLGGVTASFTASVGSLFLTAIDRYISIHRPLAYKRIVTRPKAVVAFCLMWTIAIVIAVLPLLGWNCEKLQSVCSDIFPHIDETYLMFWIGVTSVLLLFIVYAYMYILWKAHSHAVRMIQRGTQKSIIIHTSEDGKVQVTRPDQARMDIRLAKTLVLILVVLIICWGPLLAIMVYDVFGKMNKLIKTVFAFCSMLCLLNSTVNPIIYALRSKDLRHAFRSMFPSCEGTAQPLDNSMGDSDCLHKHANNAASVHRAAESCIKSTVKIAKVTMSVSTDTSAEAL

[8] = DRUGMATRIX: GABAA, Flunitrazepam, Central radioligand binding (ligand: [3H] Flunitrazepam); format: cell membranes, Rattus norvegicus, Wistar, Brain, Membrane; conditions: Not Active = under 50% inhibition at 10 µM
[9] = molecular target: T2, Polyunsaturated fatty acid lipoxygenase ALOX15 (Oryctolagus cuniculus, UniProt P12530); assay: biochemical; format: tissue-based, Reticulocytes; conditions: reticulocytes;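 also: inhibition of 15-lipoxygenase enzyme activity measured with linoleic acid as the substrate; in other assays of this panel Not Active means under 50% inhibition at 10 µM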
T2 sequence (P12530 whole entry): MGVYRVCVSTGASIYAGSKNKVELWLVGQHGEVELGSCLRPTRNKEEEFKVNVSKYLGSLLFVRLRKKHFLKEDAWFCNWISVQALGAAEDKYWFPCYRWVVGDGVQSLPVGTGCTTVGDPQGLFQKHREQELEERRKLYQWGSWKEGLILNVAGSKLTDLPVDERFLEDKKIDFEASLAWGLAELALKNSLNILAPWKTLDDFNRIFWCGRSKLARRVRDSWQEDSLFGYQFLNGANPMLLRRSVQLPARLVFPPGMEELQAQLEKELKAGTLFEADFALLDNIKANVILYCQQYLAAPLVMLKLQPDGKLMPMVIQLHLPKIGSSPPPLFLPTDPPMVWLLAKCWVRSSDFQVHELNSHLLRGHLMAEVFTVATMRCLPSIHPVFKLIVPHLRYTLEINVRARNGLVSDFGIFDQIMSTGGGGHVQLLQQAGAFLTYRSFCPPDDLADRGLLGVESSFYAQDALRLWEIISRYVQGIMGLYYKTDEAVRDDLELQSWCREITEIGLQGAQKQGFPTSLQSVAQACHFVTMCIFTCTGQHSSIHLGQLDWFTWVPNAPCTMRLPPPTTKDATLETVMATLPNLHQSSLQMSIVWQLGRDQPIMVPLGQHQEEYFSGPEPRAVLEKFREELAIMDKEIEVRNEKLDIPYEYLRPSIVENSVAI

[10] = molecular target: Mu-type opioid receptor (Homo sapiens, UniProt P35372); assay: DRUGMATRIX: Opiate mu (OP3, MOP) radioligand binding (ligand: [3H] Diprenorphine); format: cell membranes, CHO-K1, Membrane; conditions: cho-k1; Not Active = under 50% inhibition at 10 µM
Sequence of Mu-type opioid receptor (P35372 whole entry): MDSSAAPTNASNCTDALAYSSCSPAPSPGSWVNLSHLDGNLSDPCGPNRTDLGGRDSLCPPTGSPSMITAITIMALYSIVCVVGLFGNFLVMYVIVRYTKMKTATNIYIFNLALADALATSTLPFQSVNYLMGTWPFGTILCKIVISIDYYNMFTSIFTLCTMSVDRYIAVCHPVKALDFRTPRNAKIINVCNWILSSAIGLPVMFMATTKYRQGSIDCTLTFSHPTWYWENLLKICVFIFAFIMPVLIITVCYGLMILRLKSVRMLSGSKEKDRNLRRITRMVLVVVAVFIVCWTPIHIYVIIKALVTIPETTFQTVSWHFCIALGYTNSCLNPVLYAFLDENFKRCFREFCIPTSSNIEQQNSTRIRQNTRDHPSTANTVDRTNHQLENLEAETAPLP

[11] = molecular target: T3, Caspase-1 (Homo sapiens, UniProt P29466); set-up: species or system Escherichia coli
T3 sequence (P29466 whole entry): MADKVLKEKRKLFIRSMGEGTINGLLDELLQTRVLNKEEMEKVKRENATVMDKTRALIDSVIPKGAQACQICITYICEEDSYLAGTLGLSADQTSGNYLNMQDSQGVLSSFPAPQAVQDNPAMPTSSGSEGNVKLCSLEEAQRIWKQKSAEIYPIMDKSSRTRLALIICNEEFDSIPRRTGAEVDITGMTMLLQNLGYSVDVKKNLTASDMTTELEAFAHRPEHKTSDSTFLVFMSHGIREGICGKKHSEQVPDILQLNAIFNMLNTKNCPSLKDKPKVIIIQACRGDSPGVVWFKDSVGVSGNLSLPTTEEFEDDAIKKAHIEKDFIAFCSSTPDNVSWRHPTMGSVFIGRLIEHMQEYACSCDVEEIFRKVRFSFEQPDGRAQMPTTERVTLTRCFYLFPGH

[12] = molecular target: Mitogen-activated protein kinase 3 (Homo sapiens, UniProt P27361); assay: DRUGMATRIX: Protein Serine/Threonine Kinase, ERK1 enzyme inhibition (substrate: Myelin Basic Protein); set-up: species or system Escherichia coli; conditions: Not Active = under 50% inhibition at 10 µM
Sequence of Mitogen-activated protein kinase 3 (P27361 whole entry): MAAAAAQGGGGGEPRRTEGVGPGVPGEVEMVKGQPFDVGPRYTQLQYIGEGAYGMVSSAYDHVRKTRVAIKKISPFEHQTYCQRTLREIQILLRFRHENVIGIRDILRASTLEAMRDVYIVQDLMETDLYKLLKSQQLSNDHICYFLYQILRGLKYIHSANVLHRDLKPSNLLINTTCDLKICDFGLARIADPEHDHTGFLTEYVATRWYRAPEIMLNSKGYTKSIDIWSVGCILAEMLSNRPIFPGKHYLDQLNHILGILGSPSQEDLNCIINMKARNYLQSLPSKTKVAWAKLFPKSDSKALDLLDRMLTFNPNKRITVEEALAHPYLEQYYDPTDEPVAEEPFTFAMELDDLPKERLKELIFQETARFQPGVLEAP

[13] = molecular target: Epidermal growth factor receptor (Homo sapiens, UniProt P00533); assay: DRUGMATRIX: Protein Tyrosine Kinase, EGF Receptor enzyme inhibition (substrate: Poly(Glu:Tyr)); format: cell-based, Insect cells; conditions: Not Active = under 50% inhibition at 10 µM
Sequence of Epidermal growth factor receptor (P00533 whole entry): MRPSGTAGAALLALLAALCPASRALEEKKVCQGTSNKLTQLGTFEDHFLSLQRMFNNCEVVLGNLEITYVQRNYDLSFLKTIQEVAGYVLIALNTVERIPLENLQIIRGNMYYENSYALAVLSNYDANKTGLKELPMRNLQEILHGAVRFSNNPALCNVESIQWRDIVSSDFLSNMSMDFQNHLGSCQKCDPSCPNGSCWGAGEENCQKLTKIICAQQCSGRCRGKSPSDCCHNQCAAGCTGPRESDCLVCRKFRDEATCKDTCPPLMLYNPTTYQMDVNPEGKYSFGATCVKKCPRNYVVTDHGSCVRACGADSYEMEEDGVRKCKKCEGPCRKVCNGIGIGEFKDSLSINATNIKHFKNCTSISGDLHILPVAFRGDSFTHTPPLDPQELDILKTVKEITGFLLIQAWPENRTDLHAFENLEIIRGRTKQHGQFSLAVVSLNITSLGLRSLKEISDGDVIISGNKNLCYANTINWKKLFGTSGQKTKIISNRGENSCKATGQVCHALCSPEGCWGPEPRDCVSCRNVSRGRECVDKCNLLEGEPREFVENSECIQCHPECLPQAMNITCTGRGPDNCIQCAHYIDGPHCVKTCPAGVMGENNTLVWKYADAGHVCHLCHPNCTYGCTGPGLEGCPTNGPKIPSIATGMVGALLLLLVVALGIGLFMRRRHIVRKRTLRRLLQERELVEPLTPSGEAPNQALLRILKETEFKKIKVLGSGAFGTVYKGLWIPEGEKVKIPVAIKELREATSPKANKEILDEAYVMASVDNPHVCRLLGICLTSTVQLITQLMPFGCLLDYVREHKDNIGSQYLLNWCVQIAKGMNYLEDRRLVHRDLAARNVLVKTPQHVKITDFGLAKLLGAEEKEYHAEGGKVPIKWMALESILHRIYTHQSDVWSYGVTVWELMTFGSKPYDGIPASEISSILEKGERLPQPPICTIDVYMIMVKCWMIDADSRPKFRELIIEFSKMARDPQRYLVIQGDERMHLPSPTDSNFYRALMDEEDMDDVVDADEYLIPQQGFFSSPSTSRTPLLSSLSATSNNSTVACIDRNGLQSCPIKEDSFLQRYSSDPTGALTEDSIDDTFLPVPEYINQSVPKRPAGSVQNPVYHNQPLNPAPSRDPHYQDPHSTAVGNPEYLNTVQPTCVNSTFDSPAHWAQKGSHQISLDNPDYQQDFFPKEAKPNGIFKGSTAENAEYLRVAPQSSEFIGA

[14] = DRUGMATRIX: Purinergic P2X radioligand binding (ligand: [3H] alpha, beta-Methylene-ATP); format: cell membranes, Oryctolagus cuniculus, New Zealand albino, Urinary bladder, Membrane; conditions: Not Active = under 50% inhibition at 10 µM
[15] = molecular target: Cytochrome P450 2E1 (Homo sapiens, UniProt P05181); conditions: bti-tn-5b1-4; also: in other assays of this panel Not Active means under 50% inhibition at 10 µM
Sequence of Cytochrome P450 2E1 (P05181 whole entry): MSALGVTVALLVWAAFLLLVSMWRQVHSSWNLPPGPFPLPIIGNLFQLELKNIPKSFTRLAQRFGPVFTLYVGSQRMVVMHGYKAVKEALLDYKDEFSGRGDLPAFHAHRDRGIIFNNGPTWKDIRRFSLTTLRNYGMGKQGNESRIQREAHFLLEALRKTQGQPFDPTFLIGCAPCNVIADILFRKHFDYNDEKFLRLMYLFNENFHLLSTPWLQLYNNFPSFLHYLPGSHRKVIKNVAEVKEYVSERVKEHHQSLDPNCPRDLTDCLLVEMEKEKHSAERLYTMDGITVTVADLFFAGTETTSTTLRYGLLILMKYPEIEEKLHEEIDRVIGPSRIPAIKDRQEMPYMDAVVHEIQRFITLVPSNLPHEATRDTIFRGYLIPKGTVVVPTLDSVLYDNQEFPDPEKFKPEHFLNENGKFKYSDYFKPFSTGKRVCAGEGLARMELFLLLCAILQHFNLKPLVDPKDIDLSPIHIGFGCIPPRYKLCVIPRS

Sequence of Sodium-dependent noradrenaline transporter (P23975 whole entry): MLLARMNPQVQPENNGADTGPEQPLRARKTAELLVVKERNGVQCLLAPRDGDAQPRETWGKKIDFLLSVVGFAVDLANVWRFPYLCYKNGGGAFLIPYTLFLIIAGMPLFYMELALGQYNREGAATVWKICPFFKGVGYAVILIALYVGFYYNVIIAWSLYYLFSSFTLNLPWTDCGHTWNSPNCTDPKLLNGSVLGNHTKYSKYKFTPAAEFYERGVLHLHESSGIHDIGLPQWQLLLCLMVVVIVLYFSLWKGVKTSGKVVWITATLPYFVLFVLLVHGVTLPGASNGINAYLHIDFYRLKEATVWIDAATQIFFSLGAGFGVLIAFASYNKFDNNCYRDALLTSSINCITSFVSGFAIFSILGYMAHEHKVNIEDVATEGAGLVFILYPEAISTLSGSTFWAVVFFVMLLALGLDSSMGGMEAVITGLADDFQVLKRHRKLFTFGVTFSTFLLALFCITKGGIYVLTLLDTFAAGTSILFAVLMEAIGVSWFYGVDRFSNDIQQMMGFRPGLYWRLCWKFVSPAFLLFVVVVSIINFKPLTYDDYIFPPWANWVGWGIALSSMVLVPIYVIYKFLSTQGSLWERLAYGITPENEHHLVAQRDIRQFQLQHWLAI

COc1c(C)c2c(c(O)c1C/C=C(\C)CCC(=O)OCCN1CCOCC1)C(=O)OC2 [MYCOPHENOLATE MOFETIL]
Not Active: IC50 ([1]; mdck) | IC50 [2] | IC50 [3] | Ki [3] | IC50 [4] | Ki [4] | IC50 [5] | IC50 [6] | Ki [6] | IC50 [7] | IC50 [8] | Ki [8] | IC50 [9] | IC50 [10] | IC50 [11] | IC50 [12] | IC50 ([13]; insect cells) | IC50 [14] | Ki [14] | IC50 [15] | Ki [15]

NC(=O)c1ccccc1O [SALICYLAMIDE]
Not Active: IC50 ([1]; mdck) | IC50 [2] | IC50 [3] | Ki [3] | IC50 [4] | Ki [4] | IC50 [5] | IC50 [6] | Ki [6] | IC50 [7] | IC50 [8] | Ki [8] | IC50 [9] | IC50 [10] | IC50 [11] | IC50 [12] | IC50 ([13]; insect cells) | IC50 [14] | Ki [14] | IC50 [15] | Ki [15]

C=CC[C@@H]1/C=C(\C)C[C@H](C)C[C@H](OC)[C@H]2O[C@@](O)(C(=O)C(=O)N3CCCC[C@H]3C(=O)O[C@H](/C(C)=C/[C@@H]3CC[C@@H](O)[C@H](OC)C3)[C@H](C)[C@@H](O)CC1=O)[C@H](C)C[C@@H]2OC [TACROLIMUS ANHYDROUS]
Not Active: IC50 ([1]; mdck) | IC50 [2] | IC50 [3] | Ki [3] | IC50 [4] | Ki [4] | IC50 [5] | IC50 [6] | Ki [6] | IC50 [7] | IC50 [8] | Ki [8] | IC50 [9] | IC50 [10] | IC50 [11] | IC50 [12] | IC50 ([13]; insect cells) | IC50 [14] | Ki [14] | IC50 [15] | Ki [15]

c1ccc2[nH]c(-c3cscn3)nc2c1 [THIABENDAZOLE]
Not Active: IC50 ([1]; mdck) | IC50 [2] | IC50 [3] | Ki [3] | IC50 [4] | Ki [4] | IC50 [5] | IC50 [6] | Ki [6] | IC50 [7] | IC50 [8] | Ki [8] | IC50 [9] | IC50 [10] | IC50 [11] | IC50 [12] | IC50 ([13]; insect cells) | IC50 [14] | Ki [14] | IC50 [15] | Ki [15]

CC(C)(C)NC(=O)[C@@H]1CN(Cc2cccnc2)CCN1C[C@@H](O)C[C@@H](Cc1ccccc1)C(=O)N[C@H]1c2ccccc2C[C@H]1O.O
Not Active: IC50 ([1]; mdck) | IC50 [2] | IC50 [3] | Ki [3] | IC50 [4] | Ki [4] | IC50 [5] | IC50 [6] | Ki [6] | IC50 [7] | IC50 [8] | Ki [8] | IC50 [9] | IC50 [10] | IC50 [11] | IC50 [12] | IC50 ([13]; insect cells) | IC50 [14] | Ki [14] | IC50 [15] | Ki [15]

Clc1ccc(C(c2ccccc2Cl)C(Cl)Cl)cc1 (stereo not drawn) [MITOTANE]
812 nM: Ki ([1]; read-out: Ki)
819 nM: IC50 ([1]; read-out: IC50)
Not Active: IC50 [2] | IC50 [3] | Ki [3] | IC50 [4] | Ki [4] | IC50 [5] | IC50 [6] | Ki [6] | IC50 [7] | IC50 [8] | Ki [8] | IC50 [9] | IC50 [10] | IC50 [11] | IC50 [12] | IC50 ([13]; insect cells) | IC50 [14] | Ki [14] | IC50 [15] | Ki [15]

Oc1c(I)cc(I)c2cccnc12 [IODOQUINOL]
Not Active: IC50 ([1]; mdck) | IC50 [2] | IC50 [3] | Ki [3] | IC50 [4] | Ki [4] | IC50 [5] | IC50 [6] | Ki [6] | IC50 [7] | IC50 [8] | Ki [8] | IC50 [9] | IC50 [10] | IC50 [11] | IC50 [14] | Ki [14] | IC50 [15] | Ki [15]
5260 nM: IC50 ([12]; read-out: IC50)
1890 nM: IC50 ([13]; read-out: IC50)
